According to patent US20110039893A1, “GSK-3BETA INHIBITOR” (Takeda Pharmaceutical Company Limited, priority 2006, published 2011):

Each compound was assayed against T1, recombinant GSK-3β enzyme (Homo sapiens, UniProt P49841) (assay: GSK-3β inhibitory activity evaluation (Kinase Glo luminescence, recombinant enzyme)). Settings: recombinant human GSK-3β 100 ng, glycogen synthase-derived substrate peptide, 2.5 μM ATP solution, 30 min room temperature.
T1 construct: FLAG (N); made in house; host or cells: Sf-21 insect cells, recombinant baculovirus (pFASTBAC1, BAC-TO-BAC)
Assay type: biochemical
Experimental: Human GSK-3β gene was cloned by PCR using human brain cDNA (Clontech; trade name: QUICK-Clone cDNA) as a template and a primer set (GSK3β-U: 5′-[…] CTT-3′ (SEQ ID NO: 1) and GSK3β-L: 5′-[…]-3′ (SEQ ID NO: 2)) prepared by reference to the base sequence of GSK-3β gene registered under an accession No. NM_002093 in the GenBank.
PCR was performed according to the protocol attached to KOD plus DNA polymerase (TOYOBO CO., LTD.). The obtained PCR product was subjected to agarose gel (1%) electrophoresis, and DNA fragment (1.2 kb) containing GSK-3β gene was recovered from the gel, and digested with restriction enzymes EcoR I and Sal I. DNA after treatment with restriction enzymes was subjected to agarose gel (1%) electrophoresis, and the obtained DNA fragment was recovered, and ligated to plasmid pFASTBAC1 (Invitrogen) digested with restriction enzymes EcoR I and Sal I to give expression plasmid pFB-GSK3β. The base sequence of the inserted fragment was confirmed to match the object sequence. Using BAC-TO-BAC Baculovirus Expression System (Invitrogen), virus stock BAC-GSK3β of recombinant Baculovirus was prepared.
Sf-21 cells (Invitrogen) were inoculated to 150 ml Sf-900 II SEM medium (Invitrogen) containing 10% fetal bovine serum to 1×10^6 cells/ml and cultured at 27° C. for 24 hr. To the obtained culture medium was added the virus stock BAC-GSK3β of recombinant Baculovirus obtained above by 150 μl each, and the cells were further cultured for 60 hr. The culture medium was centrifuged (3000 rpm, 10 min) to separate the cells, and the cells were washed once with PBS. The cells were suspended in 10 ml of cell lysis buffer (25 mM HEPES (pH 7.5), 1% Triton X, 130 mM sodium chloride, 1 mM EDTA, 1 mM Dithiothreitol, 25 mM β-glycerophosphate, Protease inhibitor Complete (Boehringer), 1 mM sodium orthovanadate), treated 4 times in a homogenizer (POLYTRON) at 20000 rpm, 30 sec to disrupt the cells. The cell disrupt solution was centrifuged (40000 rpm, 45 min), and GSK-3β was purified from the obtained supernatant using Anti-FLAG M2 Affinity Gel (Sigma Ltd.).
To 37.5 μl of a reaction solution (25 mM HEPES (pH 7.5), 10 mM magnesium acetate, 1 mM DTT, 0.01% bovine serum albumin (Wako Pure Chemical Industries, Ltd.)) containing recombinant GSK-3β enzyme (100 ng) obtained above and substrate peptide ([…]pSEDEEE (SEQ ID NO: 3), pS is phosphorylated serine) (100 ng) derived from glycogen synthase was added a test compound (2.5 μl) dissolved in DMSO, and the mixture was incubated at room temperature for 5 min. To the obtained mixture was added ATP solution (2.5 μM ATP, 10 μl), and the mixture was reacted at room temperature for 30 min. After the reaction, the reaction was quenched by adding 50 μL of Kinase Glo Reagent (Promega) to the reaction solution. After reaction at room temperature for 10 min, the luminescence amount was measured using an ARVO multilabel counter (PerkinElmer Life Sciences). The concentration of the test compound necessary for inhibiting the luminescence amount by 50% (IC50 value) was calculated by PRISM 3.0 (Graphpad software).

T1 sequence (P49841 whole entry): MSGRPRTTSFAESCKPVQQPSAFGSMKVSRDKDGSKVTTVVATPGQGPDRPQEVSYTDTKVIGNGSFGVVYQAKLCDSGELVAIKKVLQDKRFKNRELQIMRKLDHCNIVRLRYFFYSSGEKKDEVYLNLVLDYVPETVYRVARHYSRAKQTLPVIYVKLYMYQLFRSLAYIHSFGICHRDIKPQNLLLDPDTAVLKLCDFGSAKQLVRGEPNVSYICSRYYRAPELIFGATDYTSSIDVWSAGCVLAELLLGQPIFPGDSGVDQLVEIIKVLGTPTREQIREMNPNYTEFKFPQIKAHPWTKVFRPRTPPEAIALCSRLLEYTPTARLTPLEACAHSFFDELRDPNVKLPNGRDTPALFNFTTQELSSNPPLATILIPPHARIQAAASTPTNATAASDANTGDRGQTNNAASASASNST

First: O=C(CCc1ccccn1)Nc1cc(N2CC(c3ccccc3)OC2=O)ccn1 (centres unmarked) [Example 76, N-(4-(2-oxo-5-phenyl-1,3-oxazolidin-3-yl)pyridin-2-yl)-3-(pyridin-2-yl)propanamide]
Second: O=C(NCc1ccccn1)Nc1cc(N2CC(c3ccccc3)OC2=O)ccn1 (centres unmarked) [Example 42, N-(4-(2-oxo-5-phenyl-1,3-oxazolidin-3-yl)pyridin-2-yl)-N′-(pyridin-2-ylmethyl)urea]
The IC50 of the first is higher: 160 nM for the first, < 100 nM for the second. The second is the more potent here.

Compared with `O=C(CCc1cccnc1)Nc1cc(N2CC(c3ccccc3)OC2=O)ccn1` (centres unmarked) [Example 77, N-(4-(2-oxo-5-phenyl-1,3-oxazolidin-3-yl)pyridin-2-yl)-3-(pyridin-3-yl)propanamide], `O=C(CCc1nc2ccccc2s1)Nc1cc(N2CC(c3ccccc3)OC2=O)ccn1` (centres unmarked) [Example 78, 3-(1,3-benzothiazol-2-yl)-N-(4-(2-oxo-5-phenyl-1,3-oxazolidin-3-yl)pyridin-2-yl)propanamide] is lower in IC50: 190 nM for the first, < 100 nM for the second. The second is the more potent here.

`O=C(NCc1ccccn1)Nc1cc(N2CC(c3cccc(F)c3)CC2=O)ccn1` (centres unmarked) [Example 29, N-(4-(4-(3-fluorophenyl)-2-oxopyrrolidin-1-yl)pyridin-2-yl)-N′-(pyridin-2-ylmethyl)urea] and `O=C(NCc1ccccn1)Nc1cc(N2CC(c3cccc(C(F)(F)F)c3)CC2=O)ccn1` (centres unmarked) [Example 25, N-(4-(2-oxo-4-(3-(trifluoromethyl)phenyl)pyrrolidin-1-yl)pyridin-2-yl)-N′-(pyridin-2-ylmethyl)urea] are the same in IC50: 100 nM for the first, 100 nM for the second.

`O=C(NCc1ccccn1)Nc1cc(-n2c(=O)oc3ccccc32)ccn1` [Example 64, N-(4-(2-oxo-1,3-benzoxazol-3(2H)-yl)pyridin-2-yl)-N′-(pyridin-2-ylmethyl)urea] and `Cc1ccc2c(c1)oc(=O)n2-c1ccnc(NC(=O)NCc2ccccn2)c1` [Example 65, 1-(4-(6-methyl-2-oxo-1,3-benzoxazol-3(2H)-yl)pyridin-2-yl)-3-(pyridin-2-ylmethyl)urea] cannot be ordered by IC50: < 100 nM for the first, < 100 nM for the second.

`O=C(NCc1ccccn1)Nc1cc(N2CC(CCc3ccccc3)CC2=O)ccn1` (centres unmarked) [Example 37, N-(4-(2-oxo-4-(2-phenylethyl)pyrrolidin-1-yl)pyridin-2-yl)-N′-(pyridin-2-ylmethyl)urea] and `O=C(NCc1ccccn1)Nc1cc(N2CC(Cc3ccccc3)CC2=O)ccn1` (centres unmarked) [Example 34, N-(4-(4-benzyl-2-oxopyrrolidin-1-yl)pyridin-2-yl)-N′-((pyridin-2-yl)methyl)urea] cannot be ordered by IC50: < 100 nM for the first, < 100 nM for the second.

First: O=C(CCc1ccccn1)Nc1cc(N2CC(c3ccccc3)CC2=O)ccn1 (centres unmarked) [Example 75, N-(4-(2-oxo-4-phenylpyrrolidin-1-yl)pyridin-2-yl)-3-(pyridin-2-yl)propanamide]
Second: O=C(NCc1ccccn1)Nc1cc(N2CC(c3ccccc3)CC2=O)ccn1 (centres unmarked) [Example 4, N-(4-(2-oxo-4-phenylpyrrolidin-1-yl)pyridin-2-yl)-N′-(pyridin-2-ylmethyl)urea]
The IC50 of the first is higher: 220 nM for the first, < 100 nM for the second. The second is the more potent here.

First: COc1ccc(C2CC(=O)N(c3ccnc(NC(=O)NCc4ccccn4)c3)C2)cc1 (centres unmarked) [Example 21, N-(4-(4-(4-methoxyphenyl)-2-oxopyrrolidin-1-yl)pyridin-2-yl)-N′-(pyridin-2-ylmethyl)urea]
Second: O=C(NCc1ccccn1)Nc1cc(N2CC(c3ccccc3)CC2=O)ccn1 (single isomer, unassigned; (-)) [Example 5, (−)-N-(4-(2-oxo-4-phenylpyrrolidin-1-yl)pyridin-2-yl)-N′-(pyridin-2-ylmethyl)urea]
The IC50 of the first is higher: 120 nM for the first, < 100 nM for the second. The second is the more potent here.

`O=C(NCc1ccccn1)Nc1cc(N2CC(COCc3ccccc3)OC2=O)ccn1` (centres unmarked) [Example 46, N-(4-(5-((benzyloxy)methyl)-2-oxo-1,3-oxazolidin-3-yl)pyridin-2-yl)-N′-(pyridin-2-ylmethyl)urea] and `O=C(NCc1ccccn1)Nc1cc(N2CC(Cc3ccccc3)OC2=O)ccn1` (centres unmarked) [Example 43, N-(4-(5-benzyl-2-oxo-1,3-oxazolidin-3-yl)pyridin-2-yl)-N′-(pyridin-2-ylmethyl)urea] cannot be ordered by IC50: < 100 nM for the first, < 100 nM for the second.

`CC1(C)C(=O)N(c2ccnc(NC(=O)NCc3ccccn3)c2)c2cccnc21` [Example 59, N-(4-(3,3-dimethyl-2-oxo-2,3-dihydro-1H-pyrrolo[3,2-b]pyridin-1-yl)pyridin-2-yl)-N′-(pyridin-2-ylmethyl)urea] and `CC1(C)C(=O)N(c2ccnc(NC(=O)NCc3ccccn3)c2)c2ccccc21` [Example 58, N-(4-(3,3-dimethyl-2-oxo-2,3-dihydro-1H-indol-1-yl)pyridin-2-yl)-N′-((pyridin-2-yl)methyl)urea] cannot be ordered by IC50: < 100 nM for the first, < 100 nM for the second.

First: O=C(Cc1cccs1)Nc1cc(N2CC(c3ccccc3)OC2=O)ccn1 (centres unmarked) [Example 79, N-(4-(2-oxo-5-phenyl-1,3-oxazolidin-3-yl)pyridin-2-yl)-2-(2-thienyl)acetamide]
Second: O=C(NCc1ccccn1)Nc1cc(N2CC(c3cccs3)OC2=O)ccn1 (centres unmarked) [Example 48, N-(4-(2-oxo-5-(2-thienyl)-1,3-oxazolidin-3-yl)pyridin-2-yl)-N′-(pyridin-2-ylmethyl)urea]
The IC50 of the first is higher: 230 nM for the first, < 100 nM for the second. The second is the more potent here.

`O=C(NCc1ccccn1)Nc1cc(N2CC(COc3ccccc3)OC2=O)ccn1` (centres unmarked) [Example 45, N-(4-(2-oxo-5-(phenoxymethyl)-1,3-oxazolidin-3-yl)pyridin-2-yl)-N′-(pyridin-2-ylmethyl)urea] and `O=C(NCc1ccccn1)Nc1cc(N2CC(CCc3ccccc3)OC2=O)ccn1` (centres unmarked) [Example 44, N-(4-(2-oxo-5-(2-phenylethyl)-1,3-oxazolidin-3-yl)pyridin-2-yl)-N′-(pyridin-2-ylmethyl)urea] cannot be ordered by IC50: < 100 nM for the first, < 100 nM for the second.

`O=C(NCc1ccccn1)Nc1cc(N2CC3(CCCCC3)CC2=O)ccn1` [Example 54, N-(4-(3-oxo-2-azaspiro[4.5]dec-2-yl)pyridin-2-yl)-N′-(pyridin-2-ylmethyl)urea] and `CC1CCN(c2ccnc(NC(=O)NCc3ccccn3)c2)C1=O` (centres unmarked) [Example 51, N-(4-(3-methyl-2-oxopyrrolidin-1-yl)pyridin-2-yl)-N′-((pyridin-2-yl)methyl)urea] cannot be ordered by IC50: < 100 nM for the first, < 100 nM for the second.

First: CC1CCC(=O)N1c1ccnc(NC(=O)NCc2ccccn2)c1 (centres unmarked) [Example 53, N-(4-(2-methyl-5-oxopyrrolidin-1-yl)pyridin-2-yl)-N′-((pyridin-2-yl)methyl)urea]
Second: Cn1c(=O)n(-c2ccnc(NC(=O)NCc3ccccn3)c2)c2ccccc21 [Example 61, N-(4-(3-methyl-2-oxo-2,3-dihydro-1H-benzimidazol-1-yl)pyridin-2-yl)-N′-(pyridin-2-ylmethyl)urea]
The IC50 of the first is higher: 100 nM for the first, < 100 nM for the second. The second is the more potent here.

`O=C(NCc1cccnc1)Nc1cc(N2CC(c3ccccc3)CC2=O)ccn1` (centres unmarked) [Example 7, N-(4-(2-oxo-4-phenylpyrrolidin-1-yl)pyridin-2-yl)-N′-(pyridin-3-ylmethyl)urea] and `O=C(NCc1ccc2c(c1)OCO2)Nc1cc(N2CC(c3ccccc3)CC2=O)ccn1` (centres unmarked) [Example 13, N-(1,3-benzodioxol-5-ylmethyl)-N′-(4-(2-oxo-4-phenylpyrrolidin-1-yl)pyridin-2-yl)urea] are within 1.5-fold of each other in IC50: 190 nM for the first, 280 nM for the second.

`Cc1ccc2oc(=O)n(-c3ccnc(NC(=O)NCc4ccccn4)c3)c2c1` [Example 66, N-(4-(5-methyl-2-oxo-1,3-benzoxazol-3(2H)-yl)pyridin-2-yl)-N′-(pyridin-2-ylmethyl) urea] and `O=C(NCc1ccccn1)Nc1cc(-n2cc(-c3ccccc3)oc2=O)ccn1` [Example 47, N-(4-(2-oxo-5-phenyl-1,3-oxazol-3(2H)-yl)pyridin-2-yl)-N′-(pyridin-2-ylmethyl)urea] cannot be ordered by IC50: < 100 nM for the first, < 100 nM for the second.

`O=C(NCc1ccccn1)Nc1cc(NC(=O)c2ccccc2)ccn1` [Example 69, N-(2-(((pyridin-2-ylmethyl)carbamoyl)amino)pyridin-4-yl)benzamide] and `CC1(c2ccccc2)CN(c2ccnc(NC(=O)NCc3ccccn3)c2)C(=O)O1` (centres unmarked) [Example 49, N-(4-(5-methyl-2-oxo-5-phenyl-1,3-oxazolidin-3-yl)pyridin-2-yl)-N′-(pyridin-2-ylmethyl)urea] cannot be ordered by IC50: < 100 nM for the first, < 100 nM for the second.
